Results published in patent publication USRE49035E1, “Traditional Chinese medicine composition, and preparation and application thereof” (Tasly Pharmaceutical Group Co., Ltd., priority 2013, dated 2022).

Tests used:
Type in all cases: in vivo
[1] = test system: ADP-induced platelet aggregation; assay: ADP-induced platelet aggregation rate trial in rabbits; settings: ADP final 3 μg/ml; dose 60 mg/kg intragastrically once a day for 7 d
Method: (§1) The rabbits were randomly grouped into 4 groups: the model group was given with distilled water, the aspirin group ([…]), Extract A groups of low dose and high dose at 42 and 84 mg/kg (respectively 1 2 times of clinic equivalent dosage), intragastrically administrated, once a day for 7 consecutive days. The volume of medicine administrated was 1 ml/kg body weight. 60 min after intragastric administration on 7th day, the animals were anesthetized locally, blooded through carotid artery, anticoagulated with sodium citrate (3.8%) 1:9 and centrifugated at 1000 r/min for 10 min. Platelet-rich plasma (PRP) was taken and the remain centrifugated at 3000 r/min to take platelet-poor plasma (PPP. Aggregation was induced by ADP (final concentration 3 μg/ml), AA (final concentration 80 μg/ml) and collagen (5 μg/ml). […] platelet aggregation & coagulation factor analyzer was used to measure the maximum platelet aggregation rate and to calculate inhibition rate according to following formula. [formula]

[2] = test system: AA-induced platelet aggregation; assay: AA-induced platelet aggregation rate trial in rabbits; settings: AA final 80 μg/ml; dose 60 mg/kg intragastrically once a day for 7 d
Method: as §1

[3] = test system: collagen-induced platelet aggregation; assay: Collagen-induced platelet aggregation rate trial in rabbits; settings: collagen 5 μg/ml; dose 60 mg/kg intragastrically once a day for 7 d
Method: as §1

Which Platelet aggregation rate [1] does the source give for `CC(=O)Oc1ccccc1C(=O)O` [Aspirin] here?
Its Platelet aggregation rate is 19.15 ± 4.08 %.

What about the Platelet aggregation rate [2] of the same compound?
The Platelet aggregation rate was 5.80 ± 1.85 %.

And the Platelet aggregation rate [3]?
Its Platelet aggregation rate is 6.06 ± 2.07 %.
